From patent US5605929A, “Methods and compositions for inhibiting 5α-reductase activity” (priority 1995, dated 1997)
Like-named read-outs stand apart in the source and are kept apart here.

Legend:
hamster flank organ = test: Flank organ, castrated immature male hamsters, topical treatment; type: in vivo, Syrian golden hamster; details: for effect on the contralateral flank organ: topical to right flank organ
Experimental: One to two weeks after castration, the hair on the lower back of each animal was clipped with an electric hair clipper and then shaved weekly to expose the flank organs. The animals were divided into 5 animals/treatment group. A treatment solution (5 μl) was applied topically to the right flank organ once a day using a Pipetteman and a polypropylene disposable tip. Unless specified the left flank organ was not treated. The treatment solution contained either (a) ethanol alone (vehicle and control), (b) an androgen (T or 5α-DHT), (c) a fatty acid, or (d) a combination of an androgen and a fatty acid. The flank organ was wiped with an alcohol pad to remove residual compound before each treatment. […] The flank organs, both the treated and untreated sides, were evaluated with methods to be described below to determine the effect of these treatments of the growth of the pigmented macules and the sebaceous glands. The body weight of each animal was recorded before and after treatment.
The data are presented as mean ± standard deviation. […]

[1] = molecular target: T1, 5α-Reductase of Rat Liver Microsomes (Rattus norvegicus, UniProt P24008); test: biochemical; details: for inhibition at 5 µM: read-out: % Inhibition of [^3 H]4-MA binding, Table 2, 5 μM
T1 sequence (P24008 1-259): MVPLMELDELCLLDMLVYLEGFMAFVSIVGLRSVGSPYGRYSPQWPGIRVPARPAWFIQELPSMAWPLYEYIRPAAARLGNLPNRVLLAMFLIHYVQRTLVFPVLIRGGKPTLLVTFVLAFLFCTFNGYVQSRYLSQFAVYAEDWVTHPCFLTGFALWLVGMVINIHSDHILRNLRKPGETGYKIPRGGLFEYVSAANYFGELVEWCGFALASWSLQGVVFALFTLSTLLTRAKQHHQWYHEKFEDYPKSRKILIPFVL

[2] = read-out: % Inhibition of [^3 H]4-MA binding, Table 2, 10 μM
[3] = read-out: % Inhibition of [^3 H]4-MA binding, Table 2, 40 μM
[4] = read-out: % Inhibition of [^3 H]4-MA binding, Table 2, 200 μM
[5] = read-out: % Inhibition of [^3 H]4-MA binding
[6] = read-out: % Inhibition of [^3 H]4-MA binding, Table 1, 10 μM
[7] = read-out: % Inhibition of [^3 H]4-MA binding, Table 1, 40 μM
[8] = read-out: % Inhibition of [^3 H]4-MA binding, Table 1, 200 μM

| SMILES | IC50 [1] | inhibition at 5 µM [1] | inhibition at 10 µM [1, 2] | inhibition at 40 µM [1, 3] | inhibition at 200 µM [1, 4] | also measured |
| --- | --- | --- | --- | --- | --- | --- |
| C[C@]12CCC(=O)C[C@@H]1CC[C@@H]1[C@@H]2CC[C@]2(C)[C@@H](O)CC[C@@H]12 [5α-DHT, 5α-dihydrotestosterone, reference compound] | – | – | – | – | – | effect on the contralateral flank organ (hamster flank organ): no detectable effect |
| CCCCC/C=C\C/C=C\CCCCCCCCCC(=O)Cl [11,14-cis-Eicosaidienoyl Chloride, 11,14-eicosadienoyl chloride] | > 200 µM | < 10% | < 10% | < 10% | < 10% | – |
| CCCCC/C=C/C/C=C/CCCCCCCCCC(=O)O [11,14-trans-Eicosadienoic Acid, trans 11,14-eicosadienoic acid] | > 200 µM | < 10% | < 10% | < 10% | < 10% | – |
| CCCCCCCC/C=C\CCCCCCCCCC(=O)O [11-Eicosenoic Acid, 11 eicosenoic acid] | 146 µM | < 10% | < 10% | 15% | 76% | – |
| CCCCCC/C=C\CCCCCCCCCC(=O)O [11-Octadecenoic Acid, 11-octadecenoic acid] | 26 µM | < 10% | 14% | 55% | 81% | – |
| CCCCC/C=C\CCCCCCCCCCC(=O)O [12-Octadecenoic Acid, 12-octadecenoic acid] | > 200 µM | < 10% | < 10% | < 10% | < 10% | – |
| CCCCCC/C=C\CCCCCCCCCCC(=O)O [12-cis-Nonadecenoic Acid, 12-nonadecenoic acid] | 90 µM | < 10% | < 10% | 32% | 91% | – |
| CC/C=C\C/C=C\C/C=C\CCCCCCCCCCCC(=O)O [13,16,19-Docosatrienoic Acid, 13,16,19-docosatrienoic acid] | 163 µM | < 10% | < 10% | < 10% | 65% | – |
| CCCCC/C=C\C/C=C\CCCCCCCCCCCC(=O)O [13,16-Docosadienoic Acid, 13,16-docosadienoic acid] | 118 µM | < 10% | < 10% | 21% | 93% | – |
| CCCC/C=C\CCCCCCCCCCCC(=O)O [13-Octadecenoic Acid, 13-octadecenoic acid] | 93 µM | < 10% | < 10% | < 10% | 57% | – |
| CCCCCCCC/C=C\CCCCCCCCCCCCC(=O)O [14-Tricosenoic Acid, 14 tricosenoic acid] | > 200 µM | < 10% | < 10% | < 10% | 36% | – |
| CCCCCCCCCCCCCCCCCCCC(=O)Cl [Arachidoyl Chloride, archidoyl chloride] | > 200 µM | – | < 10% | < 10% | < 10% | – |
| CCCCC/C=C\C/C=C\CCCCCCCC(=O)OC [Linoleic acid methyl ester] | – | – | – | – | – | inhibition at 40 µM [1, 5]: < 10%; inhibition at 200 µM [1, 5]: < 10% |
| CC/C=C\C/C=C\C/C=C\CCCCCCCC(=O)Cl [Linolenoyl Chloride] | – | – | – | – | – | inhibition at 200 µM [1, 5]: < 10% |
| CCCCC/C=C\C/C=C\CCCCCCCCO [Linoleyl alcohol] | – | – | – | – | – | inhibition at 10 µM [1, 5]: < 10%; inhibition at 40 µM [1, 5]: < 10%; inhibition at 200 µM [1, 5]: 25 ± 5% |
| CC/C=C\C/C=C\C/C=C\C/C=C\CCCCC(=O)O [Octadecatetraenoic acid] | 57 µM | – | < 10% | 40% | 88% | inhibition at 10 µM [1, 6]: < 10%; inhibition at 40 µM [1, 7]: 40 ± 6%; inhibition at 200 µM [1, 8]: 88 ± 2% |
| CCCCCCCC/C=C\CCCCCCCC(=O)OC [Oleic acid methyl ester] | – | – | – | – | – | inhibition at 40 µM [1, 5]: < 10%; inhibition at 200 µM [1, 5]: < 10% |
| CCCCCCCC/C=C\CCCCCCCCO [Oleyl alcohol] | – | – | – | – | – | inhibition at 40 µM [1, 5]: < 10%; inhibition at 200 µM [1, 5]: < 10% |
| CCCCCC/C=C/CCCCCCCC(=O)O [Palmitelaidic Acid] | – | – | – | – | – | inhibition at 200 µM [1, 5]: < 10% |
| CCCCCC/C=C\CCCCCCCC(=O)OC [Palmitoleic acid methyl ester] | – | – | – | – | – | inhibition at 40 µM [1, 5]: < 10%; inhibition at 200 µM [1, 5]: < 10% |
| CCCCCC/C=C\CCCCCCCC(=O)O [Palmitoleic acid] | 108 µM | – | < 10% | 16% | 73% | inhibition at 10 µM [1, 6]: < 10%; inhibition at 40 µM [1, 7]: 16 ± 5%; inhibition at 200 µM [1, 8]: 73 ± 7% |

| SMILES | IC50 [1] | inhibition at 5 µM [1] | inhibition at 10 µM [1, 2] | inhibition at 40 µM [1, 3] | inhibition at 200 µM [1, 4] | also measured |
| --- | --- | --- | --- | --- | --- | --- |
| CCCCCC/C=C\CCCCCCCCO [Palmitoleyl alcohol] | – | – | – | – | – | inhibition at 40 µM [1, 5]: < 10%; inhibition at 200 µM [1, 5]: 16 ± 4% |
| CCCCCCCCCCC/C=C\CCCCC(=O)O [Petroselinic acid] | – | – | – | < 10% | 52% | inhibition at 40 µM [1, 7]: < 10%; inhibition at 200 µM [1, 8]: 52 ± 9% |
| C[C@]12CC[C@H]3[C@@H](CCC4=CC(=O)CC[C@@]43C)[C@@H]1CC[C@@H]2O [T, Testosterone, reference compound] | – | – | – | – | – | Pigmented Macule, Untreated (L) (hamster flank organ; Table 4, T 0.5 μg alone, 18 days): 3.6 ± 0.5 mm^2; effect on the contralateral flank organ (hamster flank organ): no detectable effect |
| CCCCC/C=C\C/C=C\C/C=C\CCCCC(=O)OCC(COC(=O)CCCC/C=C\C/C=C\C/C=C\CCCCC)OC(=O)CCCC/C=C\C/C=C\C/C=C\CCCCC [Tri-γ-Linolenin, tri-γ-linolenin] | > 200 µM | < 10% | < 10% | < 10% | < 10% | – |
| CCCCC/C=C\C/C=C\C/C=C\CCCCC(=O)O[C@H]1CC[C@@]2(C)C(=CC[C@H]3[C@@H]4CC[C@H]([C@H](C)CCCC(C)C)[C@@]4(C)CC[C@@H]32)C1 [cholesteryl γ-linolenate] | > 200 µM | – | – | – | – | – |
| CC/C=C\C/C=C\C/C=C\C/C=C\C/C=C\C/C=C\CCCO [cis4,7,10,13,,16,19-docosahexenol] | – | – | – | – | – | inhibition at 200 µM [1, 5]: 51% |
| CCCCC/C=C\C/C=C\C/C=C\CCCCCCC(=O)Cl [homo-γ-linolenoyl chloride] | > 200 µM | – | – | – | – | – |
| CCCCC/C=C/C/C=C/CCCCCCCCC#N [linolelaidyl cyanide nitrile] | > 200 µM | – | – | – | – | – |
| CCCCC/C=C\C/C=C\CCCCCCCCC#N [linoleyl cyanide nitrile] | > 200 µM | – | – | – | – | – |
| CCCCCCC=CCCCCCCCCC(=O)OC [methyl 10-heptadecenoate] | > 200 µM | – | – | – | – | – |
| CCC=CCC=CCC=CCCCCCCCCCCCC(=O)OC [methyl 13,16,19-docosatrienoate] | > 200 µM | – | – | – | – | – |
| CCCCC/C=C\C/C=C\C/C=C\CCCCCCC(=O)OC [methyl homo-γ-linolenate] | > 200 µM | – | – | – | – | – |
| CCCCC/C=C\C/C=C\C/C=C\CCCCC(=O)OC [methyl γ-linolenate] | > 200 µM | – | – | – | – | – |
| CCCC/C=C\CCCCCCCC(=O)OC [myristoleic acid methyl ester] | – | – | – | – | – | inhibition at 200 µM [1, 5]: 27% |
| CCCCCCCCCCCCCCCCCCC#N [nonadecane nitrile] | > 200 µM | – | – | – | – | – |
| CCCCCC/C=C/CCCCCCCCCC(=O)O [trans-Vaccenic Acid] | – | – | – | – | 39% | – |
| CC/C=C\C/C=C\C/C=C\CCCCCCCC(=O)OC [α-Linolenic acid methyl ester] | – | – | – | – | – | inhibition at 10 µM [1, 5]: < 10%; inhibition at 40 µM [1, 5]: < 10%; inhibition at 200 µM [1, 5]: < 10% |
| CC/C=C\C/C=C\C/C=C\CCCCCCCCO [α-Linolenyl alcohol] | – | – | – | – | – | inhibition at 10 µM [1, 5]: < 10%; inhibition at 40 µM [1, 5]: < 10%; inhibition at 200 µM [1, 5]: 24 ± 1% |
| CCCCC/C=C\C/C=C\C/C=C\CCCCC(=O)Cl [γ-Linolenoyl Chloride, γ-linolenoyl chloride] | > 200 µM | – | < 10% | < 10% | < 10% | – |
| CCCCC/C=C\C/C=C\C/C=C\CCCCCOC(C)=O [γ-Linolenyl Acetate, γ-linolenyl acetate] | > 200 µM | < 10% | < 10% | < 10% | 27% | – |
| CCCCC/C=C\C/C=C\C/C=C\CCCCCO [γ-Linolenyl Alcohol, γ-linolenyl alcohol] | > 200 µM | < 10% | < 10% | < 10% | 41% | – |
